Read-outs that look alike come from different tables or passages of the source.
Assays:
[1] = Metabolic stability in rat liver microsomes (RLM); format: in vitro ADME, Sprague Dawley rats
Description: (§1) RLM Stability. Pooled RLM from male Sprague Dawley rats (XenoTech R1000) were used. Microsomal incubations were carried out in multi-well plates. Liver microsomal incubation medium consisted of PBS (100 mM, pH 7.4), MgCl2 (1 mM), and NADPH (1 mM), with 0.50 mg of liver microsomal protein per mL. Control incubations were performed by replacing the NADPH-cofactor system with PBS. Test compounds (1 μM, final solvent concentration 1.0%) were incubated with microsomes at 37° C. with constant shaking. Six time points over 60 minutes were analyzed, with 60 μL aliquots of the reaction mixture being drawn at each time point. The reaction aliquots were stopped by adding 180 μL of cold (4° C.) acetonitrile containing 200 ng/mL tolbutamide and 200 ng/mL labetalol as internal standards (IS), followed by shaking for 10 minutes, and then protein sedimentation by centrifugation at 4,000 rpm for 20 minutes at 4° C. Supernatant samples (80 μL) were diluted with water (240 μL) and analyzed for parent compound remaining using a fit-for-purpose liquid chromatography-tandem mass spectrometry (LC-MS/MS) method.
(§2) Data Analysis. The elimination constant (kel), half-life (t1/2) and intrinsic clearance (Clint) were determined in a plot of […] versus time, using linear regression analysis.

[2] = Comparative metabolism/PK of 2R and deuterated 7R in rats after oral administration; format: in vivo, Sprague Dawley rats; settings: for concentration at 0.083 h / concentration at 0.25 h / concentration at 0.5 h / concentration at 1 h / concentration at 2 h / concentration at 4 h: oral; for concentration at 0.083 h: 0.083 h after 10 mg/kg po of 2R or 7R; for concentration at 0.25 h: 0.25 h after 10 mg/kg po of 2R or 7R; for concentration at 0.5 h: 0.5 h after 10 mg/kg po of 2R or 7R; for concentration at 1 h: 1 h after 10 mg/kg po of 2R or 7R; for concentration at 2 h: 2 h after 10 mg/kg po of 2R or 7R; for concentration at 4 h: 4 h after 10 mg/kg po of 2R or 7R
Description: Animals. Male Sprague Dawley rats were used in these studies. Animals were randomly assigned to treatment groups and were fasted for 4 h before dosing.
Drugs. Test compounds 2R and 7R were dissolved in a vehicle consisting of normal saline. They were then administered orally (po) at a dose of 10 mg/kg (calculated based on freebase), and at a volume of 5 mL/kg body weight.
Sample Collection and Bioanalysis. Blood samples (approximately 60 μL) were collected under light isoflurane anesthesia (Surgivet®) from the retro orbital plexus at 0.08, 0.25, 0.5, 1, 2, 4, 8, and 24 h (4 animals per time point). Immediately after blood collection, plasma was harvested by centrifugation at 4,000 rpm for 10 min at 4° C. and samples were stored at −70±10° C. until bioanalysis. Following blood collection, animals were immediately sacrificed, the abdominal vena-cava was cut open, and the whole body was perfused from the heart using 10 mL of normal saline, and brain samples were collected from all animals. After isolation, brain samples were rinsed three times in ice-cold normal saline (for 5-10 seconds/rinse using ˜5-10 mL normal saline in disposable petri dish for each rinse) and dried on blotting paper. Brain samples were homogenized using ice-cold phosphate-buffered saline (pH 7.4) Total homogenate volume was three times the tissue weight. All homogenates were stored at −70±10° C. until bioanalysis. For bioanalysis, 25 μL aliquots of plasma/brain study samples or spiked plasma/brain calibration standards were added to individual pre-labeled micro-centrifuge tubes followed by 100 μL of an internal standard solution (glipizide, 500 ng/mL in acetonitrile) except for blanks, where 100 μL of acetonitrile was added. Samples were vortexed for 5 minutes and then centrifuged for 10 minutes at 4,000 rpm at 4° C. Following centrifugation, 100 μL of each clear supernatant was transferred to a 96 well plate and analyzed with a fit-for-purpose LC-MS/MS method, with authentic samples of each analyte used for calibration and identification. Concentrations of parent compound (2R or 7R) and metabolite 1R were determined in all samples.
Data Analysis. Pharmacokinetic parameters were estimated using the non-compartmental analysis tool of Phoenix® WinNonlin software (Ver 8.0).

[3] = Metabolic stability in mouse liver microsomes (MLM); format: in vitro ADME, CD-1 mice; settings: male, CD-1, mouse, pooled mouse liver microsomes, pH 7.4, 1 μM compound, 0.50 mg protein/mL, NADPH
Description: as §1, with “MLM” for “RLM”, “CD-1 mice” for “Sprague Dawley rats”, “M1000)” for “R1000)”
Data Analysis. The elimination constant (kel), half-life (t1/2) and intrinsic clearance (Clint) were determined in a plot of ln(AUC) versus […], using linear regression analysis.

[4] = Metabolic stability in human liver microsomes (HLM); format: in vitro ADME; settings: 0.50 mg protein/mL, NADPH; for Clint: 1 μM compound; for half-life at 1 μM: both sexes, human, pooled human liver microsomes, pH 7.4, 1 μM compound
Description: HLM Stability. Pooled HLM from adult male and female donors (Corning 452117) were used. Microsomal incubations were carried out in multi-well plates. Liver microsomal incubation medium consisted of PBS (100 mM, pH 7.4), MgCl2 (1 mM), and NADPH ([…]), with 0.50 mg of liver microsomal protein per mL. Control incubations were performed by replacing the NADPH-cofactor system with PBS. Test compounds (1 μM, final solvent concentration 1.0%) were incubated with microsomes at 37° C. with constant shaking, Six time points over 60 minutes were analyzed, with 60 μL aliquots of the reaction mixture being drawn at each time point. The reaction aliquots were stopped by adding 180 μL of cold (4° C.) acetonitrile containing 200 ng/mL tolbutamide and 200 ng/mL labetalol as internal standards (IS), followed by shaking for 10 minutes, and then protein sedimentation by centrifugation at 4,000 rpm for 20 minutes at 4° C. Supernatant samples (80 μL) were diluted with water (240 μL) and analyzed for parent compound remaining using a fit-for-purpose liquid chromatography-tandem mass spectrometry (LC-MS/MS) method.
as §2

[5] = male, Sprague Dawley, rat, pooled rat liver microsomes, pH 7.4, 1 μM compound, 0.50 mg protein/mL, NADPH
[6] = male, Sprague Dawley, rat, brain, 10 mg/kg, rat brain, read-out: Mean brain concentration
[7] = male, Sprague Dawley, rat, plasma, 10 mg/kg, rat plasma, read-out: Mean plasma concentration
[8] = rat brain after 10 mg/kg po of 2R or 7R, parent or metabolite 1R as labelled

SMILES: CNC1(c2ccc(C)cc2)CCCCC1=O (centres unmarked) [Compound 11, 2-(methylamino)-2-(p-tolyl)cyclohexan-1-one]
- half-life at 1 μM [1, 5]: 0.055 h

SMILES: Cc1ccc(C2(N)CCCCC2=O)cc1 (centres unmarked) [Compound 10, 2-amino-2-(p-tolyl)cyclohexan-1-one]
- half-life at 1 μM [1, 5]: 0.06 h

SMILES: Cc1cccc(C2(N)CCCCC2=O)c1 (centres unmarked) [Compound 12, 2-amino-2-(m-tolyl)cyclohexan-1-one]
- half-life at 1 μM [1, 5]: 0.12 h

SMILES: [2H]C([2H])([2H])N[C@@]1(c2ccc(F)cc2)CCCCC1=O [Compound 7R]
- concentration at 0.083 h [2, 6]: 98 ng/g
- concentration at 0.25 h [2, 6]: 2090 ng/g
- concentration at 0.5 h [2, 6]: 2200 ng/g
- concentration at 1 h [2, 6]: 1770 ng/g
- concentration at 2 h [2, 6]: 1420 ng/g
- concentration at 4 h [2, 6]: 236 ng/g
- half-life ([2]; male, Sprague Dawley, rat, brain, po, 10 mg/kg, rat brain after 10 mg/kg po of 2R or 7R, parent or metabolite 1R as labelled, read-out: t1/2 (brain)): 1.12 h
- concentration at 0.083 h [2, 7]: 65 ng/mL
- concentration at 0.25 h [2, 7]: 502 ng/mL
- concentration at 0.5 h [2, 7]: 799 ng/mL
- concentration at 1 h [2, 7]: 564 ng/mL
- concentration at 2 h [2, 7]: 396 ng/mL
- concentration at 4 h [2, 7]: 68 ng/mL
- Cmax ([2]; male, Sprague Dawley, rat, plasma, po, 10 mg/kg, rat plasma after 10 mg/kg po of 2R or 7R, parent or metabolite 1R as labelled): 799 ng/mL
- AUC(0-t) ([2]; male, Sprague Dawley, rat, plasma, po, 10 mg/kg, rat plasma after 10 mg/kg po of 2R or 7R, parent or metabolite 1R as labelled, read-out: AUC0-last (plasma) (converted)): 1650 ng·h/mL
- half-life ([2]; male, Sprague Dawley, rat, plasma, po, 10 mg/kg, rat plasma after 10 mg/kg po of 2R or 7R, parent or metabolite 1R as labelled, read-out: t1/2 (plasma)): 1.08 h
- AUC0-last (brain) [2, 8]: 330347 ng·min/g
- Cmax (brain) [2, 8]: 2197 ng/g
- exposure (AUC) in plasma and brain compared to non-deuterated 2R ([2]; rats, 10 mg/kg po): greater exposure

SMILES: NC1(c2cccc(F)c2)CCCCC1=O (racemic) [Compound 3, 2-amino-2-(3-fluorophenyl)cyclohexan-1-one]
- metabolic stability in RLM (in words) [1]: much greater stability

SMILES: NC1(c2ccc(F)cc2)CCCCC1=O (racemic) [Compound 1, 2-amino-2-(4-fluorophenyl)cyclohexan-1-one]
- half-life at 1 μM [3]: > 2.42 h
- microsomal CLint at 1 μM [3]: < 9.6 µL/min/mg
- Clint [4]: <9.6 μL/min/m
- half-life at 1 μM [4]: > 2.42 h
- metabolic stability in RLM (in words) [1]: much greater stability
- half-life at 1 μM [1, 5]: > 2.42 h
- microsomal CLint at 1 μM [1, 5]: < 9.6 µL/min/mg

SMILES: CNC1(c2ccc(F)cc2)CCCCC1=O (racemic) [Compound 2]
- half-life at 1 μM [3]: 1.68 h
- Clint [4]: <9.6 μL/min/m
- half-life at 1 μM [4]: > 2.42 h
- metabolic stability in RLM (in words) [1]: much greater stability
- half-life at 1 μM [1, 5]: 1.18 h
